Activity calls are given as the source filed them.
How the values were obtained:
Mus musculus [1] = organism: Mus musculus; test: Immunostimulatory activity in mouse DN3A4-1.4 hybridoma cells expressing TCR assessed as IL2 level after 24 to 48 hrs by ELISA; format: functional
Mus musculus [2] = organism: Mus musculus; test: Immunostimulatory activity in mouse N38.2H4 hybridoma cells expressing TCR assessed as IL2 level after 24 to 48 hrs by ELISA; format: functional
Mus musculus [3] = organism: Mus musculus; test: Immunostimulatory activity in mouse DN3A4-1.2 cells expressing TCR assessed as IL2 level after 24 hrs by ELISA in presence of mouse CD1d protein; format: functional, cell-based
N38.2H4 = test: Immunostimulatory activity in mouse N38.2H4 cells expressing TCR assessed as IL2 level after 24 by ELISA in presence of mouse CD1d protein; format: functional, cell-based
Splenocyte [4] = test: Immunostimulatory activity in C57BL/6 mouse Splenocytes assessed as release of IL4 at 1000 ng/ml after 72 hrs by ELISA; format: functional, cell-based
Mus musculus [5] = organism: Mus musculus; test: Immunostimulatory activity in mouse DN3A4-1.2 hybridoma cells expressing TCR assessed as IL2 level after 24 to 48 hrs by ELISA; format: functional
Mus musculus [6] = test: Immunostimulatory activity in C57BL/6 mouse assessed as INF-gamma level in serum at 10 ug/ml, iv after 2 to 24 hrs by ELISA; format: functional, organism-based; details: TDE = time-dependent effect
Mus musculus [7] = test: Immunostimulatory activity in C57BL/6 mouse assessed as IL4 level in serum at 10 ug/ml, iv after 2 to 24 hrs by ELISA; format: functional, organism-based; details: TDE = time-dependent effect
Mus musculus [8] = test: Immunostimulatory activity in C57BL/6 mouse assessed as maximum IL4 level in serum at 10 ug/ml, iv after 4 hrs by ELISA; format: functional, organism-based
Splenocyte [9] = test: Immunostimulatory activity in C57BL/6 mouse Splenocytes assessed as release of IL4 after 72 hrs by ELISA; format: functional, cell-based
Mus musculus [10] = test: Immunostimulatory activity in C57BL/6 mouse assessed as maximum INF-gamma level in serum at 10 ug/ml, iv after 12 hrs by ELISA; format: functional, organism-based
Mus musculus [11] = test: Immunostimulatory activity in C57BL/6 mouse assessed as maximum IL4 level in serum at 10 ug/ml, iv after 2 hrs by ELISA; format: functional, organism-based
Mus musculus [12] = test: Immunostimulatory activity in C57BL/6 mouse assessed as maximum INF-gamma level in serum at 10 ug/ml, iv after 2 hrs by ELISA; format: functional, organism-based

Measured: Activity

CCCCCCCCCCCCCCCCCCCCCCCCCC(=O)N[C@@H](CO[C@H]1O[C@H](CO)[C@H](OC(=O)c2ccccc2)[C@H](O)[C@H]1O)[C@H](O)[C@H](O)CCCCCCCCCCCCCC
active: Mus musculus [1] | Mus musculus [2] | Mus musculus [3] | N38.2H4 | Splenocyte [4] | Mus musculus [5] | Mus musculus [6] tde | Mus musculus [7] tde | Mus musculus [8]

CCCCCCCCCCCCCCCCCCCCCCCCCC(=O)N[C@@H](CO[C@H]1O[C@H](CO)[C@H](OCCCc2ccccc2)[C@H](O)[C@H]1O)[C@H](O)[C@H](O)CCCCCCCCCCCCCC
active: Mus musculus [1] | Mus musculus [2] | Mus musculus [3] | N38.2H4 | Splenocyte [9] | Mus musculus [5] | Mus musculus [6] tde | Mus musculus [7] tde | Mus musculus [10] | Mus musculus [11] | Mus musculus [12]

CCCCCCCCCCCCCCCCCCCCCCCCCC(=O)N[C@@H](CO[C@H]1O[C@H](CO)[C@H](OCCc2ccccc2)[C@H](O)[C@H]1O)[C@H](O)[C@H](O)CCCCCCCCCCCCCC
active: Mus musculus [1] | Mus musculus [2] | Splenocyte [4] | Mus musculus [5] | Mus musculus [6] tde | Mus musculus [7] tde | Mus musculus [10] | Mus musculus [8]

CCCCCCCCCCCCCCCCCCCCCCCCCC(=O)N[C@@H](CO[C@H]1O[C@H](CO)[C@H](O)[C@H](O)[C@H]1O)[C@H](O)[C@H](O)CCCCCCCCCCCCCC
active: Mus musculus [3] | N38.2H4 | Mus musculus [6] tde | Mus musculus [7] tde | Mus musculus [11] | Mus musculus [12]
